Experimental data reported in patent US20210299101A1, “SYSTEMS, METHODS, AND KITS FOR DIAGNOSTICS AND TREATMENT OF VIRAL RESPIRATORY INFECTION” (priority 2020, published 2021).

Tests used:
SARS-CoV-2 [1] = experiment: Example 21: double-blinded placebo controlled study in hospitalized male SARS-CoV-2 patients, survival at day 14; assay type: in vivo, human; settings: following 14 days of treatment; 80 mg qd; 15 hospitalized male patients, score 4-6 on 8 point COVID-19 ordinal scale (control group 55%)
Protocol: The primary outcome was survival at day 14.
15 subjects were assigned to HC-1119 treatment 80 mg qd. The other 15 subjects received standard treatment+HC-1119 placebo.

SARS-CoV-2 [2] = experiment: Example 22: double-blinded placebo controlled study in hospitalized female SARS-CoV-2 patients, survival; assay type: in vivo, human; settings: following 14 days of treatment; 80 mg qd; 15 hospitalized female patients, score 4-6 on 8 point COVID-19 ordinal scale (control group 67%)
Protocol: The patients were taking birth control and agreed not to engage in unprotected sex for at least 90 days post last dosing. None of the women were lactating.
15 subjects were assigned to HC-1119 treatment 80 mg qd. The other 13 subjects received standard treatment+HC-1119 placebo.

SARS-CoV-2 [3] = experiment: Example 23: open label study in hospitalized male and female SARS-CoV-2 patients, survival; assay type: in vivo, human; settings: average of 28 days of treatment; 80 mg qd; 31 hospitalized male and female patients, score 6 on 8 point COVID-19 ordinal scale (subjects not in study 3%)
SARS-CoV-2 [4] = experiment: Example 24: double-blinded placebo controlled study in COVID-19 outpatients, rate of hospitalization at day 14; assay type: in vivo, human; settings: following 14 days of treatment; 80 mg qd; 28 male and female outpatients, score 1-2 on 8 point COVID-19 ordinal scale (control group 20%)
Protocol: The primary outcome was the rate of hospitalization at day 14.
28 subjects were assigned to HC-1119 treatment 80 mg qd. The other 28 subjects received standard treatment+HC-1119 placebo. Following 14 days of treatment, 1% of the subjects in the HC-1119 were hospitalized compared to 20% of the subjects in the control group were hospitalzied.

SARS-CoV-2 [5] = assay type: in vivo, human; settings: 3 admitted patients (standard care 4.0)
Protocol: Example 19: A controlled study was conducted on 90 male patients with average age of 51 years old. […] The treatment arm was prescribed nilutamide (300 mg) orally once daily at the start of the trial, the control arm received standard care.
The patients BCRSS score was 1.3.

SARS-CoV-2 [6] = assay type: in vivo; settings: 1 admitted patient (standard care average 3.6)
SARS-CoV-2 [7] = experiment: Example 7: double-blinded placebo controlled study in hospitalized male SARS-CoV-2 patients, survival; assay type: in vivo, human; settings: following 15 days of treatment; injection 300 mg; 60 hospitalized male patients (control group 64%)
Protocol: 60 subjects were given an injection of cyproterone acetate (300 mg). The other 53 subjects received standard treatment. Following 15 days of treatment, 84% of the subjects in the cyproterone acetate survived while 64% of the control group survived.

SARS-CoV-2 [8] = experiment: Example 2: double-blinded placebo controlled prophylaxis study in health care workers, SARS-CoV-2 test at day 28; settings: 10 mg/Kg/day oral, of 50 male and female health care workers negative at baseline (placebo 9 of 47)
Protocol: Example 2: A double-blinded placebo controlled study was conducted on 97 male and female health care workers working at two hospital emergency room departments.
At baseline, all subjects were tested negative for SARS-CoV-2 infection. […] The reminder 47 subjects were given a placebo oral pill. At day 28 all subjects were tested for SARS-CoV-2 infection.

[9] = tested on: fetal pulmonary surfactant production; settings: rabbits, males and females; cited from earlier work
SARS-CoV-2 [10] = experiment: Example 5: double-blinded placebo controlled prophylaxis study in male health care workers, SARS-CoV-2 test at day 28; assay type: in vivo, human; settings: 0.25 mg/day oral
SARS-CoV-2 [11] = experiment: Example 4: double-blinded placebo controlled study in hospitalized male SARS-CoV-2 patients, survival; assay type: in vivo, human; settings: following 15 days of treatment; 160 mg qd; 15 hospitalized male patients (control group 7%)
Protocol: 15 subjects were assigned to enzalutamide treatment 160 mg qd. The other 15 subjects received standard treatment. Following 15 days of treatment, 20% of the subjects in the enzalutamide survived while 7% of the control group survived.

furin = settings: human hepatoma cell lines (Chen et al. 2008); cited from earlier work
SARS-CoV-2 [12] = experiment: Example 3: double-blinded placebo controlled prophylaxis study in male health care workers, SARS-CoV-2 test at day 28; assay type: in vivo, human; settings: 750 mg/day oral, of 18 male health care workers negative at baseline (placebo 3 of 10)

For [2H]C([2H])([2H])NC(=O)c1ccc(N2C(=S)N(c3ccc(C#N)c(C(F)(F)F)c3)C(=O)C2(C)C)cc1F [HC-1119], the subjects survived (SARS-CoV-2 [1]) was 96.3%, the subjects survived (SARS-CoV-2 [2]) was 91.8% and the subjects survived (SARS-CoV-2 [3]) was 72%. For the same compound, the subjects hospitalized (SARS-CoV-2 [4]) was 1%.

In the case of CC1(C)NC(=O)N(c2ccc([N+](=O)[O-])c(C(F)(F)F)c2)C1=O [nilutamide], the “BCRSS score of admitted patients” value (SARS-CoV-2 [5]) is reported as 1.3.

For CC(O)c1cc(C(=O)N[C@@H](C)Cn2ccc(-c3ccc(C#N)c(Cl)c3)n2)[nH]n1 (some centres unmarked) [darolutamide], the “BCRSS score of the admitted patient” value (SARS-CoV-2 [6]) was 2.

CC(=O)O[C@]1(C(C)=O)CC[C@H]2[C@@H]3C=C(Cl)C4=CC(=O)[C@@H]5C[C@@H]5[C@]4(C)[C@H]3CC[C@@]21C [cyproterone acetate] showed a subjects survived (SARS-CoV-2 [7]) of 84%.

With C=C(C)[C@@H]1CCC(C)=C[C@H]1c1c(O)cc(CCCCC)cc1O [cannabidiol] the “subjects tested positive for SARS-CoV-2” value (SARS-CoV-2 [8]) was 2 subjects.

In the case of C[C@]12CCC(=O)C[C@@H]1CC[C@@H]1[C@@H]2CC[C@]2(C)[C@@H](O)CC[C@@H]12 [dihydrotestosterone], the “effect on fetal pulmonary surfactant production” value [9] is listed as “inhibit fetal pulmonary surfactant production”.

With C[C@]12C=CC(=O)N[C@@H]1CC[C@@H]1[C@@H]2CC[C@]2(C)[C@@H](C(=O)Nc3cc(C(F)(F)F)ccc3C(F)(F)F)CC[C@@H]12 [dutasteride] the “subjects tested positive for SARS-CoV-2 (percent)” value (SARS-CoV-2 [10]; 68 male health care workers (placebo 17%)) was 4.4% and the “subjects tested positive for SARS-CoV-2 (number)” value (SARS-CoV-2 [10]; of 68 male health care workers negative at baseline (placebo 9 of 53)) was 3 subject.

Work on CNC(=O)c1ccc(N2C(=S)N(c3ccc(C#N)c(C(F)(F)F)c3)C(=O)C2(C)C)cc1F [enzalutamide] yielded a subjects survived (SARS-CoV-2 [11]) of 20%.

For N[C@@H](Cc1cc(I)c(Oc2ccc(O)c(I)c2)c(I)c1)C(=O)O [thyroid hormone T3], the furin expression (furin) is listed as “up-regulated”.

With CC(C)C(=O)Nc1ccc([N+](=O)[O-])c(C(F)(F)F)c1 [flutamide] the “subjects tested positive for SARS-CoV-2” value (SARS-CoV-2 [12]) was 1 subject.
